Measurements from patent US11135234B2, “Effective aminoglycoside antibiotic for multidrug-resistant bacteria” (MICROBIAL CHEMISTRY RESEARCH FOUNDATION, priority 2015, dated 2021).
≈ marks a conversion by molar mass, not a printed value.

Experiments:
[1] = system: S. aureus RN4220; assay: MIC, agar plate dilution method, S. aureus RN4220; assay type: cell-based, Staphylococcus aureus; details: for MIC: Staphylococcus aureus, RN4220, S. aureus RN4220, Sensitive bacterium, read-out: minimal inhibitory concentration (MIC); for minimal inhibitory concentration (MIC): S. aureus RN4220, Sensitive bacterium
In short: (§1)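 Agar plate dilution per Japan Society of Chemotherapy standard; read-out = MIC in μg/mL.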

[2] = system: S. aureus RN4220/pMS520; assay: MIC, agar plate dilution method, S. aureus RN4220/pMS520; assay type: cell-based, Staphylococcus aureus; details: for MIC: Staphylococcus aureus, MRSA, read-out: minimal inhibitory concentration (MIC), S. aureus RN4220/pMS520, MRSA; for minimal inhibitory concentration (MIC): S. aureus RN4220/pMS520, MRSA
In short: as §1

[3] = system: S. aureus MF490; assay: MIC, agar plate dilution method, S. aureus MF490; assay type: cell-based, Staphylococcus aureus; details: for MIC: Staphylococcus aureus, MRSA, read-out: minimal inhibitory concentration (MIC); for minimal inhibitory concentration (MIC): S. aureus MF490, MRSA
In short: as §1

[4] = system: E. faecium ATCC19434; assay: MIC, agar plate dilution method, E. faecium ATCC19434; assay type: cell-based, Enterococcus faecium; details: for MIC: Enterococcus faecium, ATCC19434, E. faecium ATCC19434, read-out: minimal inhibitory concentration (MIC); for minimal inhibitory concentration (MIC): E. faecium ATCC19434
In short: as §1

[5] = system: E. coli JM109/pMW218; assay: MIC, agar plate dilution method, E. coli JM109/pMW218; assay type: cell-based, Escherichia coli; details: for MIC: Escherichia coli, JM109/PMW218, E. coli JM109/pMW218, Sensitive bacterium, read-out: minimal inhibitory concentration (MIC); for minimal inhibitory concentration (MIC): E. coli JM109/pMW218, Sensitive bacterium
In short: as §1

[6] = system: K. pneumoniae ATCC BAA-1705; assay: MIC, agar plate dilution method, K. pneumoniae ATCC BAA-1705; assay type: cell-based, Klebsiella pneumoniae; details: for MIC: Klebsiella pneumoniae, ATCCBAA1705, K. pneumoniae ATCC BAA-1705, KPC-producing strain, read-out: minimal inhibitory concentration (MIC); for minimal inhibitory concentration (MIC): K. pneumoniae ATCC BAA-1705, KPC-producing strain
In short: as §1

[7] = system: K. pneumoniae ATCC BAA-2146; assay: MIC, agar plate dilution method, K. pneumoniae ATCC BAA-2146; assay type: cell-based, Klebsiella pneumoniae; details: for MIC: Klebsiella pneumoniae, ATCCBAA2146, K. pneumoniae ATCC BAA-2146, NDM-producing strain, read-out: minimal inhibitory concentration (MIC); for minimal inhibitory concentration (MIC): K. pneumoniae ATCC BAA-2146, NDM-producing strain
In short: as §1

[8] = system: A. baumannii ATCC BAA-1710; assay: MIC, agar plate dilution method, A. baumannii ATCC BAA-1710; assay type: cell-based, Acinetobacter baumannii; details: for MIC: Acinetobacter baumannii, ATCCBAA1710, A. baumannii ATCC BAA-1710, MDRA, read-out: minimal inhibitory concentration (MIC); for minimal inhibitory concentration (MIC): A. baumannii ATCC BAA-1710, MDRA
In short: as §1

[9] = system: S. marcescens TH-0447; assay: MIC, agar plate dilution method, S. marcescens TH-0447; assay type: cell-based, Serratia marcescens; details: for MIC: Serratia marcescens, TH0447, S. marcescens TH-0447, AMK-resistant, read-out: minimal inhibitory concentration (MIC); for minimal inhibitory concentration (MIC): S. marcescens TH-0447, AMK-resistant
In short: as §1

[10] = system: S. marcescens GN6944; assay: MIC, agar plate dilution method, S. marcescens GN6944; assay type: cell-based, Serratia marcescens; details: S. marcescens GN6944, GM-resistant; for MIC: Serratia marcescens, read-out: minimal inhibitory concentration (MIC)
In short: as §1

[11] = system: P. aeruginosa PAO1; assay: MIC, agar plate dilution method, P. aeruginosa PAO1; assay type: cell-based, Pseudomonas aeruginosa; details: for MIC: Pseudomonas aeruginosa, PAO1, P. aeruginosa PAO1, Sensitive bacterium, read-out: minimal inhibitory concentration (MIC); for minimal inhibitory concentration (MIC): P. aeruginosa PAO1, Sensitive bacterium
In short: as §1

[12] = system: P. aeruginosa PAO1/GN315; assay: MIC, agar plate dilution method, P. aeruginosa PAO1/GN315; assay type: cell-based, Pseudomonas aeruginosa; details: for MIC: Pseudomonas aeruginosa, read-out: minimal inhibitory concentration (MIC), P. aeruginosa PAO1/GN315, AMK-resistant; for minimal inhibitory concentration (MIC): P. aeruginosa PAO1/GN315, AMK-resistant
In short: as §1

[13] = system: P. aeruginosa MSC17707; assay: MIC, agar plate dilution method, P. aeruginosa MSC17707; assay type: cell-based, Pseudomonas aeruginosa; details: for MIC: Pseudomonas aeruginosa, MSC17707, P. aeruginosa MSC17707, AMK-resistant, read-out: minimal inhibitory concentration (MIC); for minimal inhibitory concentration (MIC): P. aeruginosa MSC17707, AMK-resistant
In short: as §1

[14] = system: P. aeruginosa MSC01035; assay: MIC, agar plate dilution method, P. aeruginosa MSC01035; assay type: cell-based, Pseudomonas aeruginosa; details: P. aeruginosa MSC01035, ABK-resistant; for MIC: Pseudomonas aeruginosa, read-out: minimal inhibitory concentration (MIC)
In short: as §1

Structure (SMILES) | MIC [1] [µg/mL] | MIC [2] [µg/mL] | MIC [3] [µg/mL] | MIC [4] [µg/mL] | MIC [5] [µg/mL] | MIC [6] [µg/mL] | MIC [7] [µg/mL] | MIC [8] [µg/mL] | MIC [9] [µg/mL] | MIC [10] [µg/mL] | MIC [11] [µg/mL] | MIC [12] [µg/mL] | MIC [13] [µg/mL] | MIC [14] [µg/mL] | also measured
CNC1C(O[C@H]2OC(CO)[C@@H](NC)[C@H](O)C2O)O[C@H]2CC(N)[C@@H](O[C@H]3CC(O)[C@H](N)CC3N)OC2C1O (stereo partly shown) [Compound S1-a, 5-deoxy-4″-N-methylapramycin] | 2 (≈ 3.72 µM) | 2 (≈ 3.72 µM) | 8 (≈ 14.9 µM) | 32 (≈ 59.5 µM) | 1 (≈ 1.86 µM) | 1 (≈ 1.86 µM) | 1 (≈ 1.86 µM) | 8 (≈ 14.9 µM) | 8 (≈ 14.9 µM) | 4 (≈ 7.44 µM) | 4 (≈ 7.44 µM) | 4 (≈ 7.44 µM) | 4 (≈ 7.44 µM) | 4 (≈ 7.44 µM) | 
CNC1C(O[C@H]2OC(CO)[C@@H](NCCN)[C@H](O)C2O)O[C@H]2CC(N)[C@@H](O[C@H]3CC(O)[C@H](N)CC3N)OC2C1O (stereo partly shown) [Compound S1-b, 4″-N-(2-aminoethyl)-5-deoxyapramycin] | 2 (≈ 3.53 µM) | 1 (≈ 1.76 µM) | 4 (≈ 7.06 µM) | 8 (≈ 14.1 µM) | 0.5 (≈ 0.882 µM) | 1 (≈ 1.76 µM) | 1 (≈ 1.76 µM) | 4 (≈ 7.06 µM) | 8 (≈ 14.1 µM) | 4 (≈ 7.06 µM) | 4 (≈ 7.06 µM) | 4 (≈ 7.06 µM) | 4 (≈ 7.06 µM) | 4 (≈ 7.06 µM) | 
CNC1C(O[C@H]2OC(CO)[C@@H](NCCCN)[C@H](O)C2O)O[C@H]2CC(N)[C@@H](O[C@H]3CC(O)[C@H](N)CC3N)OC2C1O (stereo partly shown) [Compound S1-c, 4″-N-(3-aminopropyl)-5-deoxyapramycin] | 2 (≈ 3.44 µM) | 2 (≈ 3.44 µM) | 4 (≈ 6.89 µM) | 8 (≈ 13.8 µM) | 1 (≈ 1.72 µM) | 1 (≈ 1.72 µM) | 1 (≈ 1.72 µM) | 8 (≈ 13.8 µM) | 8 (≈ 13.8 µM) | 8 (≈ 13.8 µM) | 4 (≈ 6.89 µM) | 4 (≈ 6.89 µM) | 8 (≈ 13.8 µM) | 8 (≈ 13.8 µM) | 
CNC1C(O[C@H]2OC(CO)[C@@H](NC(CN)CN)[C@H](O)C2O)O[C@H]2CC(N)[C@@H](O[C@H]3CC(O)[C@H](N)CC3N)OC2C1O (stereo partly shown) [Compound S1-d, 4″-N-(1,3-diaminopropan-2-yl)-5-deoxyapramycin] | 1 (≈ 1.68 µM) | 1 (≈ 1.68 µM) | 4 (≈ 6.71 µM) | 16 (≈ 26.9 µM) | 1 (≈ 1.68 µM) | 1 (≈ 1.68 µM) | 1 (≈ 1.68 µM) | 8 (≈ 13.4 µM) | 8 (≈ 13.4 µM) | 4 (≈ 6.71 µM) | 2 (≈ 3.36 µM) | 4 (≈ 6.71 µM) | 4 (≈ 6.71 µM) | 4 (≈ 6.71 µM) | 
CNC1C(O[C@H]2OC(CO)[C@@H](NC(=N)N)[C@H](O)C2O)O[C@H]2CC(N)[C@@H](O[C@H]3CC(O)[C@H](N)CC3N)OC2C1O (stereo partly shown) [Compound S1-e, 4″-deamino-5-deoxy-4″-guanidinoapramycin] | 1 (≈ 1.77 µM) | 1 (≈ 1.77 µM) | 4 (≈ 7.07 µM) | 4 (≈ 7.07 µM) | 0.5 (≈ 0.884 µM) | 2 (≈ 3.54 µM) | 0.5 (≈ 0.884 µM) | 4 (≈ 7.07 µM) | 4 (≈ 7.07 µM) | 4 (≈ 7.07 µM) | 4 (≈ 7.07 µM) | 4 (≈ 7.07 µM) | 8 (≈ 14.1 µM) | 8 (≈ 14.1 µM) | 
CNC1C(O[C@H]2OC(CO)[C@@H](NC)[C@H](O)C2O)O[C@H]2CC(N)[C@@H](O[C@@H]3C(N)C[C@@H](N)C(O)[C@H]3O)OC2C1O (stereo partly drawn) [Compound S1-f, 5-epi-4″-N-methylapramycin] |  |  |  |  |  |  |  |  |  |  |  |  |  |  | minimal inhibitory concentration (MIC) [1]: 2 µg/mL (≈ 3.61 µM); minimal inhibitory concentration (MIC) [2]: 2 µg/mL (≈ 3.61 µM); minimal inhibitory concentration (MIC) [3]: 8 µg/mL (≈ 14.5 µM); minimal inhibitory concentration (MIC) [4]: 16 µg/mL (≈ 28.9 µM); minimal inhibitory concentration (MIC) [5]: 1 µg/mL (≈ 1.81 µM); minimal inhibitory concentration (MIC) [6]: 2 µg/mL (≈ 3.61 µM); minimal inhibitory concentration (MIC) [7]: 1 µg/mL (≈ 1.81 µM); minimal inhibitory concentration (MIC) [8]: 8 µg/mL (≈ 14.5 µM); minimal inhibitory concentration (MIC) [9]: 8 µg/mL (≈ 14.5 µM); minimal inhibitory concentration (MIC) [10]: 4 µg/mL (≈ 7.23 µM); minimal inhibitory concentration (MIC) [11]: 4 µg/mL (≈ 7.23 µM); minimal inhibitory concentration (MIC) [12]: 4 µg/mL (≈ 7.23 µM); minimal inhibitory concentration (MIC) [13]: 8 µg/mL (≈ 14.5 µM); minimal inhibitory concentration (MIC) [14]: 8 µg/mL (≈ 14.5 µM)
CNC1C(O[C@H]2OC(CO)[C@@H](NCCN)[C@H](O)C2O)O[C@H]2CC(N)[C@@H](O[C@@H]3C(N)C[C@@H](N)C(O)[C@H]3O)OC2C1O (stereo partly shown) [Compound S1-g, 4″-N-(2-aminoethyl)-5-epiapramycin] | 4 (≈ 6.87 µM) | 2 (≈ 3.43 µM) | 8 (≈ 13.7 µM) | 16 (≈ 27.5 µM) | 1 (≈ 1.72 µM) | 2 (≈ 3.43 µM) | 2 (≈ 3.43 µM) | 4 (≈ 6.87 µM) | 8 (≈ 13.7 µM) | 8 (≈ 13.7 µM) | 4 (≈ 6.87 µM) | 4 (≈ 6.87 µM) | 4 (≈ 6.87 µM) | 8 (≈ 13.7 µM) | 
CNC1C(O[C@H]2OC(CO)[C@@H](NCCCN)[C@H](O)C2O)O[C@H]2CC(N)[C@@H](O[C@@H]3C(N)C[C@@H](N)C(O)[C@H]3O)OC2C1O (stereo partly shown) [Compound S1-h, 4″-N-(3-aminopropyl)-5-epiapramycin] |  |  |  |  |  |  |  |  |  |  |  |  |  |  | minimal inhibitory concentration (MIC) [1]: 2 µg/mL (≈ 3.35 µM); minimal inhibitory concentration (MIC) [2]: 2 µg/mL (≈ 3.35 µM); minimal inhibitory concentration (MIC) [3]: 8 µg/mL (≈ 13.4 µM); minimal inhibitory concentration (MIC) [4]: 16 µg/mL (≈ 26.8 µM); minimal inhibitory concentration (MIC) [5]: 1 µg/mL (≈ 1.68 µM); minimal inhibitory concentration (MIC) [6]: 2 µg/mL (≈ 3.35 µM); minimal inhibitory concentration (MIC) [7]: 1 µg/mL (≈ 1.68 µM); minimal inhibitory concentration (MIC) [8]: 8 µg/mL (≈ 13.4 µM); minimal inhibitory concentration (MIC) [9]: 8 µg/mL (≈ 13.4 µM); minimal inhibitory concentration (MIC) [10]: 8 µg/mL (≈ 13.4 µM); minimal inhibitory concentration (MIC) [11]: 4 µg/mL (≈ 6.7 µM); minimal inhibitory concentration (MIC) [12]: 4 µg/mL (≈ 6.7 µM); minimal inhibitory concentration (MIC) [13]: 4 µg/mL (≈ 6.7 µM); minimal inhibitory concentration (MIC) [14]: 8 µg/mL (≈ 13.4 µM)
